The text below walks through data of patent US10329304B2, “Compounds and methods for inhibition of hedgehog signaling and phosphodiesterase” (Vanderbilt University, priority 2014, dated 2019).

Usually IC50 stands for the concentration at which inhibition is half-maximal. Read a high IC50 as a need for much substance. By inhibition is commonly meant the drop in the measured response relative to a control, in per cent. Low readings indicate little suppression, high ones strong suppression.

The target in one assay is T1, PDE11A4 (Homo sapiens, UniProt Q9HCR9).
T1 construct: purchased BPS Biosciences (San Diego, Calif.)
The assay can be described thus: In vitro PDE assay. It is filed as biochemical. The procedure, abridged:
(§1)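 Fluorescence polarization readout: FAM-AMP formed from 100 nM FAM-cAMP binds nano-bead agent (60 min) and is read at ex 485/em 528 nm. Enzyme reactions ran 60 min at room temperature in duplicate, Tris-HCl pH 7.4 buffer with 10 mM MgCl2 and 0.05% Tween 20, compound in 1% final DMSO.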

The next assay deals with T2, PDE8A1 (Homo sapiens, UniProt O60658).
T2 construct: purchased BPS Biosciences (San Diego, Calif.)
Kind of assay: In vitro PDE assay. It is filed as biochemical. The procedure, abridged: as §1

In a further assay the target is T3, PDE7A1 (Homo sapiens, UniProt Q13946).
T3 construct: purchased BPS Biosciences (San Diego, Calif.)
T3 sequence (Q13946 whole entry): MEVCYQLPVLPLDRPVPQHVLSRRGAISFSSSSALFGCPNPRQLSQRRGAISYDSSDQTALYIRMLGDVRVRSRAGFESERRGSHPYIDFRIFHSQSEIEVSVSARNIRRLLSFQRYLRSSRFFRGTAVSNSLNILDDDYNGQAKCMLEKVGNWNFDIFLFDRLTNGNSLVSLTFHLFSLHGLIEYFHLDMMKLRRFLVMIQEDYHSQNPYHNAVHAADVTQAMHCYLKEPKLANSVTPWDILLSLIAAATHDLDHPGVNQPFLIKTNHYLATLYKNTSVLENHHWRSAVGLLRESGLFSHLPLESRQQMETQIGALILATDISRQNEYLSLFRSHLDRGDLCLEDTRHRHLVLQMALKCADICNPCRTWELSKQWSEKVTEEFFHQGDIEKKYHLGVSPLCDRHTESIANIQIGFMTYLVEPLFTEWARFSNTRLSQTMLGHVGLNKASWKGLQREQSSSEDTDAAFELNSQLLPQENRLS
Kind of assay: In vitro PDE assay. It is filed as biochemical. A digest of the protocol:
as §1

The target in a further assay is PDE4D3-AKAP450 (Homo sapiens, UniProt Q08499). The assay can be described thus: PDE4D3 localization and co-immunoprecipitation with AKAP450. It is filed as cell-based. As to conditions: 5 μM.
Chain of PDE4D3-AKAP450 (Q08499 1-673 isoform Q08499-2): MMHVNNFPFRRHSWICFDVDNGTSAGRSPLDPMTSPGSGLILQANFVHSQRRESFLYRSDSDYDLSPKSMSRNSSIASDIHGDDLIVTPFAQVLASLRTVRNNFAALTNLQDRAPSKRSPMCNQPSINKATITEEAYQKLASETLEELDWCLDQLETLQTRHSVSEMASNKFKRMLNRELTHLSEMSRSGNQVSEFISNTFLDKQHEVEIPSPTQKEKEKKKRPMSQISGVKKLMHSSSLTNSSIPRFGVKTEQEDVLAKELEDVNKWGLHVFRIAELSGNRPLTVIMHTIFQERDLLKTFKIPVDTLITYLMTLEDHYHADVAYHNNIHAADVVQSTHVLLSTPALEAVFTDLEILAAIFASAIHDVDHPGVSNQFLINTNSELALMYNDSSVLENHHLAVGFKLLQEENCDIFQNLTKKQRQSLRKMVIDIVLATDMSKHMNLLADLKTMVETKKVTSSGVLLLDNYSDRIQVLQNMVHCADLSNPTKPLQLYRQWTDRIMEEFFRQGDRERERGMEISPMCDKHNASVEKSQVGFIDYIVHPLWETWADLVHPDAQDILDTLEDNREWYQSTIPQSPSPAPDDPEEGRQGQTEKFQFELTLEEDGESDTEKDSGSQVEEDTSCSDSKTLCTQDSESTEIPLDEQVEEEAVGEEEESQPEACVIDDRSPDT
Chain of PDE4D3-AKAP450 (Q70FJ1 whole entry partner): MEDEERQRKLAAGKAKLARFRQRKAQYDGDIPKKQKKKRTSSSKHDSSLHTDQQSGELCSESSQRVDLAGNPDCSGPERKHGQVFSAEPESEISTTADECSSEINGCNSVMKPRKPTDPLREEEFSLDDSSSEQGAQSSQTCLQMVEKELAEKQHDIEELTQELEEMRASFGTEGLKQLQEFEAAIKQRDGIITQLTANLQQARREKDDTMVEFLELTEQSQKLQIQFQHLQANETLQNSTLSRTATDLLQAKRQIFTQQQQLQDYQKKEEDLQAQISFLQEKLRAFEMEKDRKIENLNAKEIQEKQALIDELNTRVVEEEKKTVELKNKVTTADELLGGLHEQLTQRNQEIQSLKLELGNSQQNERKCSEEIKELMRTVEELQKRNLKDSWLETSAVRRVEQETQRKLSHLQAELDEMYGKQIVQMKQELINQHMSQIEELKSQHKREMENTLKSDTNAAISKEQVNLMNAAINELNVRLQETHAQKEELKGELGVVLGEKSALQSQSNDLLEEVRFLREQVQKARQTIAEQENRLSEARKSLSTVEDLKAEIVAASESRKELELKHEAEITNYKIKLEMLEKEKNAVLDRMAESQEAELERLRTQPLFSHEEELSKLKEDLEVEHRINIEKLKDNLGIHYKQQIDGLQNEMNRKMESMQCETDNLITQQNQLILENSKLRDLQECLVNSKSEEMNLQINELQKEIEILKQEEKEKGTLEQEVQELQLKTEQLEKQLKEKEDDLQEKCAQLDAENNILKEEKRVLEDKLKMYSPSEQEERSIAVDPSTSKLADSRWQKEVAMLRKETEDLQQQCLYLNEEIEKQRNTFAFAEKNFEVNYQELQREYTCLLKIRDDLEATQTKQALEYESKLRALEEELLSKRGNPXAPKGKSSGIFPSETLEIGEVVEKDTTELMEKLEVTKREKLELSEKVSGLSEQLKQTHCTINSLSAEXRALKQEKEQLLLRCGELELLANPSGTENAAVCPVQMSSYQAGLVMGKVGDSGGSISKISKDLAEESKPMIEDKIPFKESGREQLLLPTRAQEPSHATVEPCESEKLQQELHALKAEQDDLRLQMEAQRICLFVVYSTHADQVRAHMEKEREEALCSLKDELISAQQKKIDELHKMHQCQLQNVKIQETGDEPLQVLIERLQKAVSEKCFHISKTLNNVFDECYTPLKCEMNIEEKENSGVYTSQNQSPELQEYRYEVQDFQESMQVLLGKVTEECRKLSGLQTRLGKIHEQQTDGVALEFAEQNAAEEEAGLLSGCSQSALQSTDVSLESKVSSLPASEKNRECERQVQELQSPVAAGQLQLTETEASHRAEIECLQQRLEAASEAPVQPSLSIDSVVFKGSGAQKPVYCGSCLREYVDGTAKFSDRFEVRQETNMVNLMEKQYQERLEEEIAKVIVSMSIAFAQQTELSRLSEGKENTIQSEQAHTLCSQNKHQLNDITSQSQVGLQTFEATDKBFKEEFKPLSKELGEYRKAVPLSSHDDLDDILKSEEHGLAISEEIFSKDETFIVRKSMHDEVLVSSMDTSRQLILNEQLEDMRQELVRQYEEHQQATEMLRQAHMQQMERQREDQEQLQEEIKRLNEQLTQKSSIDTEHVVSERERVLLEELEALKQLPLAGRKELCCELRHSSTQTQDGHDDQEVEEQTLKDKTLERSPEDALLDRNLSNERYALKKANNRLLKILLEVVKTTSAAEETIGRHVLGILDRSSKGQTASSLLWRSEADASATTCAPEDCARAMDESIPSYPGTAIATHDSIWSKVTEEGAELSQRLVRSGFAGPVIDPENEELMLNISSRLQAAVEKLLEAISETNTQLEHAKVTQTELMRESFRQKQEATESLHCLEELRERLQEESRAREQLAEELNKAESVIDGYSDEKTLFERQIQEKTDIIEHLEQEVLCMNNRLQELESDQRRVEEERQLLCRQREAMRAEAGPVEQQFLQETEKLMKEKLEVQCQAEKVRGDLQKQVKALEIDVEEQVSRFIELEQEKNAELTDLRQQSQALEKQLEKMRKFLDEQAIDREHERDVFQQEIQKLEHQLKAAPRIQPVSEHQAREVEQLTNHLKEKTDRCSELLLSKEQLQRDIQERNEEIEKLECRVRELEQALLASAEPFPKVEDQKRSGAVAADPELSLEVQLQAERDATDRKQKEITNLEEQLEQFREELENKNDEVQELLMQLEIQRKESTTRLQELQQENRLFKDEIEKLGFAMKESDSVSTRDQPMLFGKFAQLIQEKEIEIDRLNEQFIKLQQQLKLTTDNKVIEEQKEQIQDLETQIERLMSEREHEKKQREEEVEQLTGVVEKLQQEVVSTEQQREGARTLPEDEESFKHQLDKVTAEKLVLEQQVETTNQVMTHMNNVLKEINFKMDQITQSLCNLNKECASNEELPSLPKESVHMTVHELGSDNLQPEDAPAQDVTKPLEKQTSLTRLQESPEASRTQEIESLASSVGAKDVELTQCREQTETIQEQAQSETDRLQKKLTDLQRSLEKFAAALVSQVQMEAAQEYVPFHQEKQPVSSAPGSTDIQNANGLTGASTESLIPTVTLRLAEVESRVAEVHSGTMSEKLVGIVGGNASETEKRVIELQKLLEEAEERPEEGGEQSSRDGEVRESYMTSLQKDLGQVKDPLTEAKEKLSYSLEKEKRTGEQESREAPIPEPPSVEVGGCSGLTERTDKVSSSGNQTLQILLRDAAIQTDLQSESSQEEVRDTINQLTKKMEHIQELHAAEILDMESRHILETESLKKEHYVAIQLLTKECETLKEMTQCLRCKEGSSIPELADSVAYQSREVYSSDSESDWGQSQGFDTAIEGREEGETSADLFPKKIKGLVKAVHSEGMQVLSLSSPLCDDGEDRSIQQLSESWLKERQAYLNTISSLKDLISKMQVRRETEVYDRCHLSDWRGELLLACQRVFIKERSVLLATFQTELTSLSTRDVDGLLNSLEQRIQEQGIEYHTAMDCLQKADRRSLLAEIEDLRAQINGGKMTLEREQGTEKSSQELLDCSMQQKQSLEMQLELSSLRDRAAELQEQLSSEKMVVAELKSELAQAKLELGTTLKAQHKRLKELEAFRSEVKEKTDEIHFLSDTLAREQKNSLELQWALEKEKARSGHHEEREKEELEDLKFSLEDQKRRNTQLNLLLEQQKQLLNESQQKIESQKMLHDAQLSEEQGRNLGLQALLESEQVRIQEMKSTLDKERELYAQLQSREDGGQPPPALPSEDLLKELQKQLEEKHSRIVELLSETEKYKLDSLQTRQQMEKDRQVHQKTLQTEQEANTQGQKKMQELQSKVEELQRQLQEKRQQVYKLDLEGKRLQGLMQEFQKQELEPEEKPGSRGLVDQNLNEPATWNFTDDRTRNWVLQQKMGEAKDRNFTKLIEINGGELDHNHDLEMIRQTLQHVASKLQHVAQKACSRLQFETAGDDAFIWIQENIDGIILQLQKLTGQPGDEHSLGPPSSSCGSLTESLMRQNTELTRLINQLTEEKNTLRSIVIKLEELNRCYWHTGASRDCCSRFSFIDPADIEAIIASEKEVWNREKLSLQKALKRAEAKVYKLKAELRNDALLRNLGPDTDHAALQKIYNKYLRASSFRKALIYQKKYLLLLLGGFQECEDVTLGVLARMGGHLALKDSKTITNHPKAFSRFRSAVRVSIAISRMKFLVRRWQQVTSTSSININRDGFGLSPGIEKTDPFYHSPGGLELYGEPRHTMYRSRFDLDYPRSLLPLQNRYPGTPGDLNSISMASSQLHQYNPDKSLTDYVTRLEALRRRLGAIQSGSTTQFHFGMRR
Another assay deals with panel of 21 phosphatases. The assay can be described thus: Phosphatase profiling assay (Millipore). It is filed as biochemical, human. How it is done: (§2) Profiling assays were not performed in-house. Compounds were shipped to the following companies for possible target identification: Kinase profiling assays were performed by DiscoverRx (San Diego, Calif.) using a phage display model; GPCR profiling assays were performed by Millipore (St. Louis, Mo.) using in cells expressing Gα15, a promiscuous G protein that enhances GPCR coupling to downstream Ca^2+ signaling pathways; phosphatase profiling assay was performed by Millipore (Dundee, UK).

In the next assay the test system is panel of 158 GPCRs. Kind of assay: Millipore-GPCR Panel (cells expressing Gα15, Ca2+ signaling). It is filed as cell-based. Here is the method: as §2
The subject of the next assay is mouse cardiomyocytes. Kind of assay: Contractility of isolated mouse cardiomyocytes. It is filed as cell-based. The source says:
To observe whether the effects of eggmanone administration are cardiomyocyte specific or due to off target effects, the contractility of individual mouse cardiomyocytes and the tone of ascending/descending aorta was observed. In mouse cardiomyocytes, Egm caused a 50% increase in contractility over vehicle control (FIG. 32).

Molecules are shown by their SMILES. Entries after “also recorded” stand apart in the source; their conditions may differ.

Take `C=C(C)Cn1c(SCC(=O)c2cccs2)nc2sc3c(c2c1=O)CCCC3` [Eggmanone, 3-(2-methylallyl)-2-((2-oxo-2-(thiophen-2-yl)ethyl)thio)-5,6,7,8-tetrahydrobenzo[4,5]thieno[2,3-d]pyrimidine-4(3H)-one]: the IC50 against PDE11A4 is over 50 µM. The inhibition at 50 µM against PDE8A1 and against PDE7A1 was under 10% in each case. The “PDE4D3 localization / physical association with AKAP450” value at PDE4D3-AKAP450 was “does not disrupt PDE4D3 localization; also recorded: did not disrupt PDE4D3 localization or physical association with AKAP450”. In addition, the “agonist or antagonist activity” value in the assay with panel of 21 phosphatases and with panel of 158 GPCRs was “did not exhibit significant agonist or antagonist activity” throughout. Moreover, the significant inhibition in the assay on panel of 21 phosphatases and with panel of 158 GPCRs was over 10 µM each time.

As for `C=C(C)Cn1c(SCC(=O)c2cccs2)nc2sc3c(c2c1=O)CCCC3` [EGM, Eggmanone], the “increase in contractility over vehicle control” value with mouse cardiomyocytes worked out at 50%.
